Values of other authors in patent publication US7956212B2 (XenoPort, Inc., priority 2004, dated 2011).
Blank lines part the entries; values can stand above or below the molecule they belong to.

Columns and labels:
[1] = following oral administration
[2] = rats
[3] = patients, administered alone

levels of levodopa [1]: low
Structure (SMILES): CC(C)(C)C(=O)Oc1ccc(C[C@H](N)C(=O)O)cc1O [NB-355]

absorption following rectal administration [2]: poor
Structure (SMILES): C[C@@](Cc1ccc(O)c(O)c1)(NN)C(=O)O [carbidopa]

half-life of levodopa in plasma [3]: about 50 min
Structure (SMILES): N[C@@H](Cc1ccc(O)c(O)c1)C(=O)O [levodopa, L-3,4-dihydroxyphenylalanine]
